Laboratory results published in PubChem BioAssay (NCI).
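Five concentrations, 48 hours, 96-well plates. TGI denotes the concentration required for complete inhibition of growth.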

How the values were obtained:
Test in all cases: inhibition of tumour cell growth, NCI panel, 48 h
786-0 renal = tested on: 786-0 renal
A498 renal = tested on: A498 renal
A549 NSCLC = tested on: A549 NSCLC
ACHN renal = tested on: ACHN renal
BT-549 breast = tested on: BT-549 breast
CAKI-1 renal = tested on: CAKI-1 renal
CCRF-CEM leukemia = tested on: CCRF-CEM leukemia
COLO 205 colon = tested on: COLO 205 colon
DU-145 prostate = tested on: DU-145 prostate
EKVX NSCLC = tested on: EKVX NSCLC
HCT-116 colon = tested on: HCT-116 colon
HCT-15 colon = tested on: HCT-15 colon
HL-60(TB) leukemia = tested on: HL-60(TB) leukemia
HOP-62 NSCLC = tested on: HOP-62 NSCLC
HOP-92 NSCLC = tested on: HOP-92 NSCLC
HS 578T breast = tested on: HS 578T breast
HT29 colon = tested on: HT29 colon
IGROV1 ovarian = tested on: IGROV1 ovarian
K-562 leukemia = tested on: K-562 leukemia
KM12 colon = tested on: KM12 colon
LOX IMVI melanoma = tested on: LOX IMVI melanoma
M14 melanoma = tested on: M14 melanoma
MALME-3M melanoma = tested on: MALME-3M melanoma
MCF7 breast = tested on: MCF7 breast
MDA-MB-231 breast = tested on: MDA-MB-231 breast
MDA-MB-435 = tested on: MDA-MB-435
MDA-N = tested on: MDA-N
MOLT-4 leukemia = tested on: MOLT-4 leukemia
NCI-H226 lung = tested on: NCI-H226 lung
NCI-H23 lung = tested on: NCI-H23 lung
NCI-H460 lung = tested on: NCI-H460 lung
NCI-H522 lung = tested on: NCI-H522 lung
NCI/ADR-RES ovarian = tested on: NCI/ADR-RES ovarian
OVCAR-3 ovarian = tested on: OVCAR-3 ovarian
OVCAR-4 ovarian = tested on: OVCAR-4 ovarian
OVCAR-5 ovarian = tested on: OVCAR-5 ovarian
OVCAR-8 ovarian = tested on: OVCAR-8 ovarian
PC-3 prostate = tested on: PC-3 prostate
RPMI-8226 leukemia = tested on: RPMI-8226 leukemia
RXF 393 renal = tested on: RXF 393 renal
SF-268 CNS = tested on: SF-268 CNS
SF-295 CNS = tested on: SF-295 CNS
SF-539 CNS = tested on: SF-539 CNS
SK-MEL-2 melanoma = tested on: SK-MEL-2 melanoma
SK-MEL-28 melanoma = tested on: SK-MEL-28 melanoma
SK-MEL-5 melanoma = tested on: SK-MEL-5 melanoma
SK-OV-3 ovarian = tested on: SK-OV-3 ovarian
SN12C renal = tested on: SN12C renal
SNB-19 CNS = tested on: SNB-19 CNS
SNB-75 CNS = tested on: SNB-75 CNS
SR leukemia = tested on: SR leukemia
SW-620 colon = tested on: SW-620 colon
TK-10 renal = tested on: TK-10 renal
U251 CNS = tested on: U251 CNS
UACC-257 melanoma = tested on: UACC-257 melanoma
UACC-62 melanoma = tested on: UACC-62 melanoma
UO-31 renal = tested on: UO-31 renal
HCC-2998 colon = tested on: HCC-2998 colon
T-47D breast = tested on: T-47D breast

NCCSc1nc2ccccc2s1
TGI (786-0 renal): 71.5 µM
TGI (A498 renal): 90.7 µM
TGI (A549 NSCLC): > 100 µM
TGI (ACHN renal): > 100 µM
TGI (BT-549 breast): 93.8 µM
TGI (CAKI-1 renal): > 100 µM
TGI (CCRF-CEM leukemia): > 100 µM
TGI (COLO 205 colon): > 100 µM
TGI (DU-145 prostate): > 100 µM
TGI (EKVX NSCLC): 80.6 µM
TGI (HCT-116 colon): > 100 µM
TGI (HCT-15 colon): > 100 µM
TGI (HL-60(TB) leukemia): > 100 µM
TGI (HOP-62 NSCLC): 62.3 µM
TGI (HOP-92 NSCLC): 71 µM
TGI (HS 578T breast): 76.4 µM
TGI (HT29 colon): > 100 µM
TGI (IGROV1 ovarian): > 100 µM
TGI (K-562 leukemia): > 100 µM
TGI (KM12 colon): > 100 µM
TGI (LOX IMVI melanoma): 90.8 µM
TGI (M14 melanoma): > 100 µM
TGI (MALME-3M melanoma): > 100 µM
TGI (MCF7 breast): 98.1 µM
TGI (MDA-MB-231 breast): > 100 µM
TGI (MDA-MB-435): 69 µM
TGI (MDA-N): > 100 µM
TGI (MOLT-4 leukemia): 94.8 µM
TGI (NCI-H226 lung): 92.9 µM
TGI (NCI-H23 lung): > 100 µM
TGI (NCI-H460 lung): > 100 µM
TGI (NCI-H522 lung): 75.7 µM
TGI (NCI/ADR-RES ovarian): > 100 µM
TGI (OVCAR-3 ovarian): > 100 µM
TGI (OVCAR-4 ovarian): > 100 µM
TGI (OVCAR-5 ovarian): > 100 µM
TGI (OVCAR-8 ovarian): > 100 µM
TGI (PC-3 prostate): > 100 µM
TGI (RPMI-8226 leukemia): 95.7 µM
TGI (RXF 393 renal): 77.9 µM
TGI (SF-268 CNS): 86 µM
TGI (SF-295 CNS): 73.2 µM
TGI (SF-539 CNS): 37.6 µM
TGI (SK-MEL-2 melanoma): 82.2 µM
TGI (SK-MEL-28 melanoma): > 100 µM
TGI (SK-MEL-5 melanoma): > 100 µM
TGI (SK-OV-3 ovarian): 79.7 µM
TGI (SN12C renal): > 100 µM
TGI (SNB-19 CNS): > 100 µM
TGI (SNB-75 CNS): 62.1 µM
TGI (SR leukemia): 79.5 µM
TGI (SW-620 colon): > 100 µM
TGI (TK-10 renal): 66.3 µM
TGI (U251 CNS): 48.3 µM
TGI (UACC-257 melanoma): > 100 µM
TGI (UACC-62 melanoma): > 100 µM
TGI (UO-31 renal): > 100 µM

CC1(C)CC(=O)C(CCC(=O)/C=C/c2ccccc2)C(=O)C1
TGI (786-0 renal): > 100 µM
TGI (A498 renal): > 100 µM
TGI (A549 NSCLC): > 100 µM
TGI (ACHN renal): > 100 µM
TGI (BT-549 breast): > 100 µM
TGI (CAKI-1 renal): > 100 µM
TGI (CCRF-CEM leukemia): > 100 µM
TGI (COLO 205 colon): > 100 µM
TGI (DU-145 prostate): > 100 µM
TGI (EKVX NSCLC): > 100 µM
TGI (HCC-2998 colon): > 100 µM
TGI (HCT-116 colon): > 100 µM
TGI (HCT-15 colon): > 100 µM
TGI (HL-60(TB) leukemia): > 100 µM
TGI (HOP-62 NSCLC): > 100 µM
TGI (HOP-92 NSCLC): > 100 µM
TGI (HS 578T breast): > 100 µM
TGI (HT29 colon): > 100 µM
TGI (IGROV1 ovarian): > 100 µM
TGI (K-562 leukemia): > 100 µM
TGI (KM12 colon): > 100 µM
TGI (LOX IMVI melanoma): > 100 µM
TGI (M14 melanoma): > 100 µM
TGI (MALME-3M melanoma): > 100 µM
TGI (MCF7 breast): > 100 µM
TGI (MDA-MB-231 breast): > 100 µM
TGI (MDA-MB-435): > 100 µM
TGI (MDA-N): > 100 µM
TGI (MOLT-4 leukemia): > 100 µM
TGI (NCI-H226 lung): > 100 µM
TGI (NCI-H23 lung): > 100 µM
TGI (NCI-H460 lung): > 100 µM
TGI (NCI-H522 lung): > 100 µM
TGI (NCI/ADR-RES ovarian): > 100 µM
TGI (OVCAR-3 ovarian): > 100 µM
TGI (OVCAR-4 ovarian): > 100 µM
TGI (OVCAR-5 ovarian): > 100 µM
TGI (OVCAR-8 ovarian): > 100 µM
TGI (PC-3 prostate): > 100 µM
TGI (RPMI-8226 leukemia): > 100 µM
TGI (RXF 393 renal): > 100 µM
TGI (SF-268 CNS): > 100 µM
TGI (SF-295 CNS): > 100 µM
TGI (SF-539 CNS): > 100 µM
TGI (SK-MEL-2 melanoma): > 100 µM
TGI (SK-MEL-28 melanoma): > 100 µM
TGI (SK-MEL-5 melanoma): > 100 µM
TGI (SK-OV-3 ovarian): > 100 µM
TGI (SN12C renal): > 100 µM
TGI (SNB-19 CNS): > 100 µM
TGI (SNB-75 CNS): > 100 µM
TGI (SW-620 colon): > 100 µM
TGI (T-47D breast): > 100 µM
TGI (TK-10 renal): > 100 µM
TGI (U251 CNS): > 100 µM
TGI (UACC-257 melanoma): > 100 µM
TGI (UACC-62 melanoma): > 100 µM
TGI (UO-31 renal): > 100 µM

NCC(=O)NC1(c2cc3ccccc3s2)CCCCC1
TGI (786-0 renal): > 100 µM
TGI (A498 renal): > 100 µM
TGI (A549 NSCLC): > 100 µM
TGI (ACHN renal): 56.9 µM
TGI (BT-549 breast): > 100 µM
TGI (CAKI-1 renal): > 100 µM
TGI (CCRF-CEM leukemia): 59.5 µM
TGI (COLO 205 colon): 32.5 µM
TGI (DU-145 prostate): > 100 µM
TGI (EKVX NSCLC): > 100 µM
TGI (HCC-2998 colon): 29 µM
TGI (HCT-116 colon): > 100 µM
TGI (HCT-15 colon): > 100 µM
TGI (HL-60(TB) leukemia): 86.8 µM
TGI (HOP-62 NSCLC): > 100 µM
TGI (HOP-92 NSCLC): 78.1 µM
TGI (HS 578T breast): 99.5 µM
TGI (HT29 colon): 54.8 µM
TGI (IGROV1 ovarian): > 100 µM
TGI (K-562 leukemia): 24.6 µM
TGI (KM12 colon): > 100 µM
TGI (LOX IMVI melanoma): > 100 µM
TGI (M14 melanoma): 34 µM
TGI (MALME-3M melanoma): 36.3 µM
TGI (MCF7 breast): > 100 µM
TGI (MDA-MB-435): > 100 µM
TGI (MDA-N): > 100 µM
TGI (NCI-H226 lung): 69.5 µM
TGI (NCI-H23 lung): > 100 µM
TGI (NCI-H460 lung): > 100 µM
TGI (NCI-H522 lung): > 100 µM
TGI (NCI/ADR-RES ovarian): > 100 µM
TGI (OVCAR-3 ovarian): > 100 µM
TGI (OVCAR-4 ovarian): > 100 µM
TGI (OVCAR-5 ovarian): > 100 µM
TGI (OVCAR-8 ovarian): > 100 µM
TGI (RPMI-8226 leukemia): 45.2 µM
TGI (RXF 393 renal): > 100 µM
TGI (SF-268 CNS): > 100 µM
TGI (SF-295 CNS): > 100 µM
TGI (SF-539 CNS): > 100 µM
TGI (SK-MEL-28 melanoma): 39.8 µM
TGI (SK-MEL-5 melanoma): 33.2 µM
TGI (SK-OV-3 ovarian): > 100 µM
TGI (SN12C renal): > 100 µM
TGI (SNB-19 CNS): > 100 µM
TGI (SNB-75 CNS): 83.7 µM
TGI (SR leukemia): 19.2 µM
TGI (SW-620 colon): > 100 µM
TGI (T-47D breast): > 100 µM
TGI (TK-10 renal): > 100 µM
TGI (UACC-257 melanoma): 32.1 µM
TGI (UACC-62 melanoma): 44.5 µM
TGI (UO-31 renal): > 100 µM
